Legend:
Assay type in all cases: in vivo
rTg4510 mice [1] = assay: Morris Water Maze behavioral test, study of Example 1 and Example 12; settings: once daily by gavage 12.5 weeks, Example 1 at 7 and 20 mg/kg, Example 12 at 20 mg/kg, vs vehicle treated rTg4510, FIG. 1
From the text: (§1) Double transgenic rTg4510 mice are an aggressive Tauopathy model expressing the full-length human Tau carrying the P301L mutation (Tau4R0N-P301L) under the control of the tetracycline-inducible CaMKII promoter (Ramsden et al., J. Neurosci., 2005⋅25(46):10637-10647). Wild-type animals and single transgenic mice expressing only the tetracycline-controlled transactivator (tTA) were used as genotype controls. The study comprised 6 treatment groups (n=20 mice/group) with the following group distribution (see Table 5). Compounds or vehicle control were administered once daily by gavage for 12.5 weeks starting at the age of 5.5 weeks. The Morris Water Maze (MWM) behavioral test was performed after 12.5 weeks of treatment over 5 consecutive days. During MWM testing daily dosing was continued. Behavioral testing (MWM) was performed only on female mice (around n=11 female/group). […]
The MWM was performed in a circular tank, measuring 48″ in diameter. […] Trials were video recorded and analyzed by a computer program (WaterMaze; Actimetrics, Wilmette, Ill.). […] Percent time spent in each quadrant (target, left and right adjacent, and opposite) were calculated for probe trials. […] Data were analyzed by 2-way ANOVA followed by post-hoc comparisons and shown statistics refers to differences compared to vehicle treated rTg4510 mice.

CD68 positive microglia = assay: CD68 histology (neuroinflammation), study of Example 1 and Example 12; settings: rTg4510 mice, once daily by gavage 12.5 weeks; Example 1 at 7 and 20 mg/kg, Example 12 at 20 mg/kg; vs vehicle treated rTg4510; FIG. 3
From the text: Double transgenic rTg4510 mice are an aggressive Tauopathy model expressing the full-length human Tau carrying the P301L mutation (Tau4R0N-P301L) under the control of the tetracycline-inducible CaMKII promoter (Ramsden et al., J. Neurosci., 2005⋅25(46):10637-10647). Wild-type animals and single transgenic mice expressing only the tetracycline-controlled transactivator (tTA) were used as genotype controls. The study comprised 6 treatment groups (n=20 mice/group) with the following group distribution (see Table 5). Compounds or vehicle control were administered once daily by gavage for 12.5 weeks starting at the age of 5.5 weeks. The Morris Water Maze (MWM) behavioral test was performed after 12.5 weeks of treatment over 5 consecutive days. During MWM testing daily dosing was continued. Behavioral testing (MWM) was performed only on female mice (around n=11 female/group). Measurements of cortical atrophy and histology for misfolded Tau (MC1) and CD68 were performed on 7 animals/group excluding wild-type animals.
A systematic random set of sections for five sagittal sections per animal (a total of 175 sections) was used for CD68 histological staining. […] Data were analyzed by 1-way ANOVA followed by post-hoc comparisons and shown statistics refers to differences compared to vehicle treated rTg4510 mice.

misfolded Tau (MC1) = biological target: T1, misfolded Tau (MC1) (Homo sapiens, UniProt P10636, P618L); assay: Misfolded Tau by MC1 histology, study of Example 1 and Example 12; settings: rTg4510 mice, once daily by gavage 12.5 weeks; Example 1 at 7 and 20 mg/kg, Example 12 at 20 mg/kg; vs vehicle treated rTg4510; FIG. 2B
T1 construct: expressing the full-length human Tau carrying the P301L mutation (Tau4R0N-P301L); from tissue; host or cells: brain (cortex) of double transgenic rTg4510 mice
From the text: as §1, with “weeks.” for “weeks. The Morris Water Maze (MWM) behavioral test was performed after 12.5 weeks of treatment over 5 consecutive days. During MWM testing daily dosing was continued. Behavioral testing (MWM) was performed only on female mice (around n=11 female/group).”
(§2) After behavioral testing, mice were deeply anesthetized by standard injectable anesthesia and transcardially perfused with cold PBS. […] Sections from 7 mice per group, excluding wild-type animals, were collected from around 10 mediolateral levels starting 0.2 mm lateral from midline, mounted on slides, and used to quantify the cortex size. […] To reduce auto-fluorescence of the tissue, sections were incubated with a solution of 0.1% Sudan Black (Sigma) in 70% ethanol for 15 minutes at room temperature, then washed four times 5 minutes in PBS, and mounted using ProLong Gold Antifade reagent (Invitrogen). Staining was visualized on the Nikon Eclipse Ti microscope, imaged using Nikon DS-Fi2 camera, and quantified using the NIS-Element AR4.13.1 software. […]

rTg4510 mice [2] = assay: Cortex size (cortical atrophy), study of Example 1 and Example 12; settings: once daily by gavage 12.5 weeks, Example 1 at 7 and 20 mg/kg, Example 12 at 20 mg/kg, vs vehicle treated rTg4510, FIG. 2A
From the text: as §1, with “weeks.” for “weeks. The Morris Water Maze (MWM) behavioral test was performed after 12.5 weeks of treatment over 5 consecutive days. During MWM testing daily dosing was continued. Behavioral testing (MWM) was performed only on female mice (around n=11 female/group).”
as §2

T1 sequence (P10636 1-383 isoform P10636-6 P243L): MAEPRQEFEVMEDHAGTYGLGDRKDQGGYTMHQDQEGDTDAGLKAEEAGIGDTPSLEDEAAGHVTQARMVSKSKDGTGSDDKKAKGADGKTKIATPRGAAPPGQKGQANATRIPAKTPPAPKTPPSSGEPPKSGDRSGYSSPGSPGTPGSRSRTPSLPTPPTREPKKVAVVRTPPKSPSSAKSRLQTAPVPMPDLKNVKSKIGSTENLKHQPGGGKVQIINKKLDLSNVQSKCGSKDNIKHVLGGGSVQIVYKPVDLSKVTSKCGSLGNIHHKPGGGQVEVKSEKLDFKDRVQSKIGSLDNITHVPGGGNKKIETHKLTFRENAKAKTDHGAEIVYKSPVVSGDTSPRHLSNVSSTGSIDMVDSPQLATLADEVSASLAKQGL

Row | misfolded Tau (MC1 histology) (misfolded Tau (MC1)) | Compound | percentage of time spent in the target quadrant (MWM probe trial) (rTg4510 mice [1]) | CD68 positive microglia (CD68 positive microglia) | cortex size (rTg4510 mice [2])
1 | dose-dependent decrease | CC(C)N1CCc2c(c3ccc(Nc4ccc5nc(N6CCOCC6)sc5c4)nc3n2C)C1 [Example 1] | dose-dependent increase | decrease | dose-dependent increase
2 | significant decrease | CN(C)[C@@H]1CCc2c(c3ccc(Nc4ccc5nc(N6CCOCC6)sc5c4)nc3n2C)C1 [Example 12] | significant increase | significant decrease | significant increase
